Like-named read-outs stand apart in the source and are kept apart here. Starred links: 1 amine or outer side, 2 acyl side, 3 side chain; linkers in the order of their positions; H or OH if unused. Positions of bridges follow the written chain, without caps; N, C: chain ends. Non-standard residues stand in square brackets, D forms with d. Residues, ends and D or L forms follow the SMILES beside them. *: point of attachment. TBMB = c1c(C[*:1])cc(C[*:3])cc1C[*:2]; Palmitoyl = CCCCCCCCCCCCCCCC(=O)*; Benzoyl(3-I) = O=C(c1cccc(I)c1)*; 4Abz = Nc1ccc(C(=O)O)cc1
Experiment: Biodistribution in U-87 MG tumor-bearing mice
Assay type: in vivo, BALB/c nu-nu mice
Settings: male, BALB/c nu-nu, mouse, iv, 37 kBq, total radioactivity, U-87 MG-bearing mice, mean ± SD, n = 3; for tissue uptake at 1 h / tissue uptake dose at 1 h: 1 h after i.v. administration; for tissue uptake at 2 h / tissue uptake dose at 2 h: 2 h after i.v. administration; for tissue uptake at 6 h / tissue uptake dose at 6 h: 6 h after i.v. administration; for tissue uptake at 5 min / tissue uptake dose at 5 min: 5 min after i.v. administration; for tissue uptake at 0.5 h / tissue uptake dose at 0.5 h: 30 min after i.v. administration
Experimental: Animal experiments were performed in compliance with institutional animal care regulations, with the study protocol approved by the Experimental Animal Committee of Osaka Medical and Pharmaceutical University (Approval Numbers: 21–76, 22–76, and 23–76). Four-week-old male BALB/c nu-nu mice (Japan SLC, Shizuoka, Japan) were housed under a 12 h light/12 h dark cycle with free access to food and water. Tumor-bearing mice were established by suspending U-87 MG cells (2 × 10^6 cells/mouse) in PBS(–) and subcutaneously injecting 100 μL of the suspension into the right hind leg. For co-implantation models, A549 cells (2 × 10^6 cells/mouse) were suspended in PBS(–) and inoculated (100 μL) into the left hind leg of the same mice already inoculated with U-87 MG cells. Mice with tumor size approximately 10 mm in diameter, 4–5 weeks after inoculation, were used for biodistribution studies. Animals in which either tumor was not viable were excluded from the experiment.
U-87 MG-bearing mice (n = 42, 8–9 weeks old; 22–27 g) were randomly assigned into groups and administered [^125I]bcRGDpal or [^125I]bcRGDiba via intravenous injection (37 kBq in 100 μL of PBS containing 0.1% Tween 80 (PBS-T80)). At 5 min, 30 min, 1 h, 2 h, 6 h, 12 h, or 24 h post-injection, the mice were euthanized (n = 3 per time point). The heart, kidneys, liver, brain, pancreas, spleen, lung, small intestine, large intestine, muscle, skin, stomach, bone, and tumors were excised. Each organ’s weight and radioactivity were measured by a NaI well-type scintillation counter, and the % ID/g was calculated. To investigate the correlation between integrin expression and radioactivity accumulation, biodistribution at 2 h after administration of [^125I]bcRGDpal or [^125I]bcRGDiba was assessed in A549 and U-87 MG co-implantation mice (n = 5) using the same procedure. Additionally, co-implantation mice were injected with [^125I]bcRGDdimer (37 kBq/100 μL PBS-T80) and euthanized at 30 min, 2 h, and 4 h post-injection (n = 4 per time point), and % ID/g values were calculated as described above. The minimum sample size needed for the biodistribution study in U-87 MG-bearing mice was calculated using G Power software version 3.1.9.7. The calculation was based on a two-tailed test, with an effect size of 3.9, a significance level (α) of 0.05, and a statistical power (1 − β) of 0.8. […] The minimum required sample size for the biodistribution study in A549 and U-87 MG co-implantation mice was also calculated to be four animals per group (effect size = 2.5, α = 0.05, 1 − β = 0.8). To guarantee objective results, the experiment was carried out in a blinded manner. Specifically, drug administration and radioactivity measurements were conducted by different investigators to eliminate potential bias.

[1] = liver, read-out: Radioactivity in liver
[2] = lung, read-out: Radioactivity in lung
[3] = muscle, read-out: Radioactivity in muscle
[4] = pancreas, read-out: Radioactivity in pancreas
[5] = small intestine, read-out: Radioactivity in small intestine
[6] = spleen, read-out: Radioactivity in spleen
[7] = stomach, read-out: Radioactivity in stomach
[8] = thyroid, read-out: Radioactivity in thyroid

**Q.** What does the source list for `CCCCCCCCCCCCCCCC(=O)N[C@@H](CCCCNC(=O)c1cccc(I)c1)C(=O)N1CCC[C@H]1C(=O)N1CCC[C@H]1C(=O)N1CCC[C@H]1C(=O)N[C@@H](CO)C(=O)NCC(=O)Nc1ccc(C(=O)N[C@@H](CO)C(=O)NCC(=O)N[C@H]2CSCc3cc4cc(c3)CSC[C@@H](NC(=O)[C@H](CCC(N)=O)NC(=O)[C@@H]3CCCN3C(=O)[C@H](Cc3c[nH]cn3)NC2=O)C(=O)N[C@@H](CCCNC(=N)N)C(=O)NCC(=O)N[C@@H](CC(=O)O)C(=O)N[C@@H](C(N)=O)CSC4)cc1` [[^125I]bcRGDpal] (Palmitoyl-K(Benzoyl(3-I))PPPSG[4Abz]SGCHPQ[dC]RGD[dC]-NH2; linker 10-14-18 via TBMB)?
**A.** tissue uptake at 1 h [1]: 15.8 ± 0.9 %ID/g; tissue uptake at 2 h [1]: 12.3 ± 0.3 %ID/g; tissue uptake at 6 h [1]: 6 ± 0.2 %ID/g; tissue uptake at 12 h (liver, 12 h after i.v. administration, read-out: Radioactivity in liver): 1.9 ± 0.2 %ID/g; tissue uptake at 24 h (liver, 24 h after i.v. administration, read-out: Radioactivity in liver): 0.5 %ID/g; tissue uptake at 5 min [2]: 11.8 ± 1.3 %ID/g; tissue uptake at 0.5 h [2]: 11.2 ± 1 %ID/g; tissue uptake at 1 h [2]: 9.6 ± 1.3 %ID/g; tissue uptake at 2 h [2]: 7.8 ± 1 %ID/g; tissue uptake at 6 h [2]: 4.4 ± 0.5 %ID/g; tissue uptake at 12 h (lung, 12 h after i.v. administration, read-out: Radioactivity in lung): 2.2 ± 0.3 %ID/g; tissue uptake at 24 h (lung, 24 h after i.v. administration, read-out: Radioactivity in lung): 0.6 ± 0.1 %ID/g; tissue uptake at 5 min [3]: 1.4 ± 0.3 %ID/g; tissue uptake at 0.5 h [3]: 1.6 ± 0.2 %ID/g; tissue uptake at 1 h [3]: 1.4 ± 0.2 %ID/g; tissue uptake at 2 h [3]: 1.1 ± 0.1 %ID/g; tissue uptake at 6 h [3]: 0.6 ± 0.1 %ID/g; tissue uptake at 12 h (muscle, 12 h after i.v. administration, read-out: Radioactivity in muscle): 0.3 %ID/g; tissue uptake at 24 h (muscle, 24 h after i.v. administration, read-out: Radioactivity in muscle): 0.1 %ID/g; tissue uptake at 5 min [4]: 2.8 ± 0.2 %ID/g; tissue uptake at 0.5 h [4]: 2.5 ± 0.3 %ID/g; tissue uptake at 1 h [4]: 1.9 ± 0.1 %ID/g; tissue uptake at 2 h [4]: 1.6 ± 0.1 %ID/g; tissue uptake at 6 h [4]: 1.2 ± 0.3 %ID/g; tissue uptake at 12 h (pancreas, 12 h after i.v. administration, read-out: Radioactivity in pancreas): 0.4 %ID/g; tissue uptake at 24 h (pancreas, 24 h after i.v. administration, read-out: Radioactivity in pancreas): 0.1 %ID/g; tissue uptake at 5 min [5]: 2.3 ± 0.2 %ID/g; tissue uptake at 0.5 h [5]: 4.5 ± 0.6 %ID/g; tissue uptake at 1 h [5]: 7 ± 0.3 %ID/g; tissue uptake at 2 h [5]: 9.3 ± 0.9 %ID/g; tissue uptake at 6 h [5]: 4 ± 0.2 %ID/g; tissue uptake at 12 h (small intestine, 12 h after i.v. administration, read-out: Radioactivity in small intestine): 1.9 ± 0.5 %ID/g; tissue uptake at 24 h (small intestine, 24 h after i.v. administration, read-out: Radioactivity in small intestine): 0.3 %ID/g; tissue uptake at 5 min [6]: 5.1 ± 0.4 %ID/g; tissue uptake at 0.5 h [6]: 5.9 ± 0.8 %ID/g; tissue uptake at 1 h [6]: 4.6 ± 0.6 %ID/g; tissue uptake at 2 h [6]: 3.7 ± 0.1 %ID/g; tissue uptake at 6 h [6]: 1.9 ± 0.2 %ID/g; tissue uptake at 12 h (spleen, 12 h after i.v. administration, read-out: Radioactivity in spleen): 0.8 ± 0.1 %ID/g; tissue uptake at 24 h (spleen, 24 h after i.v. administration, read-out: Radioactivity in spleen): 0.2 %ID/g; tissue uptake dose at 5 min [7]: 0.5 ± 0.1 %ID; tissue uptake dose at 0.5 h [7]: 0.6 ± 0.1 %ID; tissue uptake dose at 1 h [7]: 0.7 ± 0.1 %ID; tissue uptake dose at 2 h [7]: 0.8 ± 0.1 %ID; tissue uptake dose at 6 h [7]: 0.4 %ID; tissue uptake dose at 12 h (stomach, 12 h after i.v. administration): 0.4 ± 0.3 %ID; tissue uptake dose at 24 h (stomach, 24 h after i.v. administration): 0.1 ± 0.1 %ID; tissue uptake dose at 5 min [8]: 0.1 %ID; tissue uptake dose at 0.5 h [8]: 0.1 ± 0.1 %ID; tissue uptake dose at 1 h [8]: 0.1 ± 0.1 %ID; tissue uptake dose at 2 h [8]: 0.1 ± 0.1 %ID; tissue uptake dose at 6 h [8]: 0.1 %ID

— paper PMC12030627, “Radioiodinated Bicyclic RGD Peptide Derivatives for Enhanced Tumor Accumulation” (Pharmaceuticals, 2025)
